Assay results reported in publication PMC9246773, “Assessing the Activity of Antimicrobial Peptides Against Common Marine Bacteria Located in Rotifer (Brachionus plicatilis) Cultures” (Probiotics and Antimicrobial Proteins, 2022).
No end group written: not given here.

How the values were obtained:
Type in all cases: cell-based
Vibrio scophthalmi [1] = settings: 48 h
Description: (§1) A range of bacterial species with the potential to be transferred to developing fish larvae as pathogens or probiotics were selected for use in the study (Table 2). Bacterial isolates were stored at −80 °C and thawed, and 25 µL of the isolates was spread onto marine salt agar (MSA) media. All isolates were incubated at 25 °C for 18 h to reach mid-log growth phase. All isolates were sub-cultured and identified using mass spectrometry (MALDI-TOF) using the BioTyper and MBT 8468 library (Bruker Pty Ltd). The isolate Tenacibaculum discolor was plated on Anacker and Oradal’s marine (AOM) media, incubated for 48 h and identified using the aforementioned method. Bacterial isolates were suspended in sterile saline (0.75% NaCl w/v) to 0.5 McFarland standard. […] The bacterial isolates T. discolor and Pseudoalteromonas sp. require marine salts to grow and were not added to MHB (0‰). The isolate T. discolor requires low nutrients to grow, therefore, a separate MHB (25‰) was prepared at a diluted ratio of 1 part MHB and 7 parts artificial seawater (25‰).
(§2) The protocol was followed to determine the minimum inhibitory concentration (MIC) of the selected peptides. Two MIC assays were performed, firstly to determine whether each peptide precipitated in MHB and thereby required acetic acid adjustments (supplementary materials) and secondly, to determine the antimicrobial activity of each peptide in artificial seawater (25‰). Peptide stock solutions (1.3 mg mL^−1) were made by diluting the peptides in sterile deionised water. MHB was made with deionised water to reach a concentration of approaching 0‰ and artificial sea salts (Sigma-Aldrich® S9883) to reach a salinity of 25‰.
(§3) Once the acetic acid requirement for each peptide was determined (Table 3), the antimicrobial activity of each peptide was tested at a salinity of 0‰ and 25‰ for all bacterial isolates. A stock solution for peptides that required acetic acid was prepared by a 1:2 dilution in acetic acid (0.02% acetic acid w/v, containing 0.4% BSA) solution. In a 96-well polypropylene microtitre plates (Costar® 3879), 100 µL of this peptide stock was added to the first well for each bacterial isolate tested and serially diluted twofold with acetic acid (0.01% acetic acid w/v, containing 0.2% BSA). From each well, 10 µL of each peptide concentration was added to the corresponding wells of a new 96-well microtitre plate. From each of the bacterial suspensions (0‰), 90 µL was added to each well. […] Twofold serial dilutions were made with MHB (0‰). From each of the bacterial suspensions (0‰), 50 µL was added to each well. The same method was followed for testing peptides in MHB at 25‰. All peptide concentrations ranged from 0.125 to 65 µg mL^−1, and the bacterial suspension in each well was approximately 5 × 10^5 CFU mL^−1. The different salinities were used to compare any differences in antimicrobial activity in 0‰ and 25‰ water. […] Each bacterium was trialled in duplicate.

Vibrio harveyi [2] = settings: 48 h
Description: as §1, §2, §3

Tenacibaculum discolor = settings: 48 h
Description: as §1, §2, §3

Vibrio rotiferianus [3] = settings: 48 h
Description: as §1, §2, §3

[4] = system: Vibrio harveyi (ATCC 35084); settings: ATCC 35084, 48 h
Description: as §1, §2, §3

Shewanella sp. [5] = settings: 48 h
Description: as §1, §2, §3

Vibrio alginolyticus [6] = settings: 48 h
Description: as §1, §2, §3

[7] = system: Escherichia coli (ATCC 25922); settings: ATCC 25922, 48 h
Description: as §1, §2, §3

Pseudoalteromonas sp. = settings: 48 h
Description: as §1, §2, §3

Vibrio scophthalmi [8] = settings: 48 h; remark: listed apart in the source
Description: as §1, §2
(§4) A broth microdilution protocol was followed to test whether the AMPs precipitated in MHB. The isolates T. discolor and Pseudoalteromonas were excluded from this assay because they required marine salts for growth. The peptides HHC10 and HHC36 previously required acetic acid adjustments according to [63] and were not trialled in this assay. To test if peptides required acetic acid, each peptide was diluted 1:2 in acetic acid (0.02% acetic acid w/v, containing 0.4% BSA) solution. In a 96-well polypropylene microtitre plates (Costar® 3879), 100 µL of this peptide stock was added to the first well for each bacterial isolate tested and serially diluted 2-fold with acetic acid (0.01% acetic acid w/v, containing 0.2% BSA). From each well, 10 µL of each peptide concentration was added to the corresponding wells of a new 96-well microtitre plate. From each of the bacterial suspensions in MHB (0‰), 90 µL was added to each well. […] From each of the bacterial suspensions in MHB (0‰), 50 µL was added to each well. All peptide concentrations ranged from 0.125 - 65µg mL^-1 and the bacterial suspension in each well was approximately 5 × 10^5 CFU mL^-1. Antimicrobial peptides that have an MIC value two or more dilutions higher in the assay with no acetic acid, compared to the assay with acetic acid, require acetic acid adjustments. The 96-well plates were incubated at 25 °C and read at 24 and 48 hours. The MIC was visually determined using a Sensititre™ Vizion™ Digital MIC Viewing System (Thermo Scientific™), and the lowest AMP concentration that had no bacterial growth was recorded as the MIC after 48 hours. Each bacterium was trialled in duplicate.

Vibrio harveyi [9] = settings: 48 h; remark: listed apart in the source
Description: as §1, §2, §4

Vibrio rotiferianus [10] = settings: 48 h; remark: listed apart in the source
Description: as §1, §2, §4

[11] = system: Vibrio harveyi (ATCC 35084); settings: ATCC 35084, 48 h; remark: listed apart in the source
Description: as §1, §2, §4

Shewanella sp. [12] = settings: 48 h; remark: listed apart in the source
Description: as §1, §2, §4

Vibrio alginolyticus [13] = settings: 48 h; remark: listed apart in the source
Description: as §1, §2, §4

[14] = system: Escherichia coli (ATCC 25922); settings: ATCC 25922, 48 h; remark: listed apart in the source
Description: as §1, §2, §4

Row | Substance | MIC V. scophthalmi, salinity 0‰ (Vibrio scophthalmi [1]) [µg/mL] | MIC V. scophthalmi, salinity 25‰ (Vibrio scophthalmi [1]) [µg/mL] | MIC V. harveyi, salinity 0‰ (Vibrio harveyi [2]) [µg/mL] | MIC V. harveyi, salinity 25‰ (Vibrio harveyi [2]) [µg/mL] | MIC T. discolor, salinity 25‰ (Tenacibaculum discolor) [µg/mL] | MIC V. rotiferianus, salinity 0‰ (Vibrio rotiferianus [3]) [µg/mL] | MIC V. rotiferianus, salinity 25‰ (Vibrio rotiferianus [3]) [µg/mL] | MIC V. harveyi ATCC 35084, salinity 0‰ [4] [µg/mL] | MIC V. harveyi ATCC 35084, salinity 25‰ [4] [µg/mL] | MIC Shewanella sp., salinity 25‰ (Shewanella sp. [5]) [µg/mL] | MIC V. alginolyticus, salinity 0‰ (Vibrio alginolyticus [6]) [µg/mL] | MIC V. alginolyticus, salinity 25‰ (Vibrio alginolyticus [6]) [µg/mL] | MIC E. coli ATCC 25922, salinity 0‰ [7] [µg/mL] | MIC E. coli ATCC 25922, salinity 25‰ [7] [µg/mL] | MIC Pseudoalteromonas sp., salinity 25‰ (Pseudoalteromonas sp.) [µg/mL] | other results
1 | KRWWKWWRR-NH2 [HHC36] | 2.03 | > 65 | 32.5 | > 65 | > 65 | > 65 | > 65 | 32.5 | > 65 | > 65 | > 65 | > 65 | 2.03 | > 65 | > 65 | –
2 | RRQWRGWVRIWL-NH2 [Peptide 3005] | 0.13 | 65 | 4.06 | > 65 | > 65 | 1.02 | > 65 | 4.06 | > 65 | 65 | 2.03 | > 65 | 4.06 | > 65 | > 65 | MIC Shewanella sp., salinity 0‰ (Shewanella sp. [5]): 8.13 µg/mL; MIC V. scophthalmi, Acetic (Vibrio scophthalmi [8]): 1.02 µg/mL; MIC V. scophthalmi, No acetic (Vibrio scophthalmi [8]): 0.25 µg/mL; MIC V. harveyi, Acetic (Vibrio harveyi [9]): 4.06 µg/mL; MIC V. harveyi, No acetic (Vibrio harveyi [9]): 1.02 µg/mL; MIC V. rotiferianus, Acetic (Vibrio rotiferianus [10]): 4.06 µg/mL; MIC V. rotiferianus, No acetic (Vibrio rotiferianus [10]): 1.02 µg/mL; MIC V. harveyi ATCC 35084, Acetic [11]: 16.25 µg/mL; MIC V. harveyi ATCC 35084, No acetic [11]: 16.25 µg/mL; MIC Shewanella sp., Acetic (Shewanella sp. [12]): 4.06 µg/mL; MIC Shewanella sp., No acetic (Shewanella sp. [12]): 8.13 µg/mL; MIC V. alginolyticus, Acetic (Vibrio alginolyticus [13]): 4.06 µg/mL; MIC V. alginolyticus, No acetic (Vibrio alginolyticus [13]): 16.25 µg/mL; MIC E. coli ATCC 25922, Acetic [14]: > 65 µg/mL; MIC E. coli ATCC 25922, No acetic [14]: > 65 µg/mL
